Measurements from ChEMBL document CHEMBL1268871, “Structure and functions of gamma-dodecalactone isolated from Antrodia camphorata for NK cell activation” (Bioorg Med Chem, 2010).
Values belong to the compound of their own block, whether it stands above or below them. The source made the active and inactive calls. The calls are words filed in the database; no cut-off is given here.

How the values were obtained:
Homo sapiens [1] = species on record: Homo sapiens; assay: Immunomodulatory activity in human PMNC assessed as induction of CD69 expression at 375 uM within 10 mins by FACS analysis; type: functional
[2] = Metabolic stability in human NK cells assessed as formation of 4-hydroxydodecanoic acid at 375 uM after 3 hrs by RP-HPLC analysis; type: ADME, cell-based
NK [3] = assay: Immunomodulatory activity in human NK cells assessed as induction of IL2 gene expression at 375 uM after 4 hrs by RT-PCR analysis; type: functional, cell-based
PBMC [4] = assay: Cellular uptake in human PBMC nucleus residual solution after 20 mins by GC analysis; type: ADME, cell-based
PBMC [5] = assay: Cellular uptake in human PBMC nucleus after 2 hrs by GC analysis; type: ADME, cell-based
[6] = Cytotoxicity human PMNC up to 375 uM after 48 hrs by WST assay
[7] = Immunomodulatory activity in human PMNC assessed as induction of CD69 expression at 200 uM after 24 hrs by FACS analysis; type: functional
PBMC [8] = assay: Cellular uptake in human PBMC nucleus assessed per mg of protein after 30 mins by GC analysis; type: ADME, cell-based; details: 0.5 h
PBMC [9] = assay: Cellular uptake in human PBMC after 1 hr by GC analysis; type: ADME, cell-based
PBMC [10] = assay: Cellular uptake in human PBMC pellet solution after 20 mins by GC analysis; type: ADME, cell-based
PBMC [11] = assay: Cellular uptake in human PBMC nucleus after 30 mins by GC analysis; type: ADME, cell-based; details: 0.5 h
PBMC [12] = assay: Cellular uptake in human PBMC nucleus residual solution after 2 hrs by GC analysis; type: ADME, cell-based
[13] = Immunomodulatory activity in human PMNC assessed as induction of GraB expression at 375 uM after 24 hrs by FITC-conjugated flow cytometry relative to control; type: functional
Homo sapiens [14] = species on record: Homo sapiens; assay: Immunomodulatory activity in human PMNC assessed as induction of CD69 expression after 24 hrs by FITC-conjugated flow cytometry; type: functional
PBMC [15] = assay: Cellular uptake in human PBMC residual solution after 10 mins by GC analysis; type: ADME, cell-based
[16] = Immunomodulatory activity in human PMNC assessed as induction of CD69 expression at 375 uM after 24 hrs by FACS analysis; type: functional
NK [17] = assay: Immunomodulatory activity in human NK cells assessed as induction of GZMB gene expression at 375 uM after 4 hrs by RT-PCR analysis; type: functional, cell-based
NK [18] = assay: Immunomodulatory activity in human NK cells assessed as induction of FASLG gene expression at 375 uM after 4 hrs by RT-PCR analysis; type: functional, cell-based
PBMC [19] = assay: Cellular uptake in human PBMC residual solution after 20 mins by GC analysis; type: ADME, cell-based
PBMC [20] = assay: Cellular uptake in human PBMC pellet solution after 1 hr by GC analysis; type: ADME, cell-based
PBMC [21] = assay: Cellular uptake in human PBMC nucleus residual solution after 30 mins by GC analysis; type: ADME, cell-based; details: 0.5 h
PBMC [22] = assay: Cellular uptake in human PBMC pellet solution after 30 mins by GC analysis; type: ADME, cell-based; details: 0.5 h
PBMC [23] = assay: Cellular uptake in human PBMC after 10 mins by GC analysis; type: ADME, cell-based
PBMC [24] = assay: Cellular uptake in human PBMC after 20 mins by GC analysis; type: ADME, cell-based
PBMC [25] = assay: Cellular uptake in human PBMC nucleus assessed per mg of protein after 10 mins by GC analysis; type: ADME, cell-based
[26] = Metabolic stability in human NK cells assessed as conversion to 4-hydroxydodecanoic acid at 375 uM after 45 mins by RP-HPLC analysis; type: ADME, cell-based; details: 0.75 h
PBMC [27] = assay: Cellular uptake in human PBMC nucleus after 10 mins by GC analysis; type: ADME, cell-based
PBMC [28] = assay: Cellular uptake in human PBMC pellet solution after 10 mins by GC analysis; type: ADME, cell-based
NK [29] = assay: Immunomodulatory activity in human NK cells assessed as induction of CD69 gene expression at 375 uM after 4 hrs by RT-PCR analysis; type: functional, cell-based
PBMC [30] = assay: Cellular uptake in human PBMC nucleus residual solution after 10 mins by GC analysis; type: ADME, cell-based
PBMC [31] = assay: Cellular uptake in human PBMC nucleus assessed per mg of protein after 1 hr by GC analysis; type: ADME, cell-based
PBMC [32] = assay: Cellular uptake in human PBMC residual solution after 2 hrs by GC analysis; type: ADME, cell-based
PBMC [33] = assay: Cellular uptake in human PBMC pellet solution after 3 hrs by GC analysis; type: ADME, cell-based
HepG2 = assay: Immunomodulatory activity in human HepG2 cells assessed as induction of innate immunity-mediated cytotoxicity at 375 uM after 24 hrs by fluorescence microscopy; type: functional, cell-based
PBMC [34] = assay: Cellular uptake in human PBMC after 30 mins by GC analysis; type: ADME, cell-based; details: 0.5 h
[35] = Immunomodulatory activity in human PMNC assessed as induction of CD69 expression at 20 ng/ml after 24 hrs by FACS analysis; type: functional
PBMC [36] = assay: Cellular uptake in human PBMC after 3 hrs by GC analysis; type: ADME, cell-based
NK [37] = assay: Immunomodulatory activity in human NK cells assessed as induction of IFNG gene expression at 375 uM after 4 hrs by RT-PCR analysis; type: functional, cell-based
PBMC [38] = assay: Cellular uptake in human PBMC nucleus after 20 mins by GC analysis; type: ADME, cell-based
NK [39] = assay: Immunomodulatory activity in human NK cells assessed as induction of TNF gene expression at 375 uM after 4 hrs by RT-PCR analysis; type: functional, cell-based
[40] = Cellular uptake in human NK cells at 500 uM after 20 mins by GC analysis; type: ADME, cell-based
PBMC [41] = assay: Cellular uptake in human PBMC nucleus assessed per mg of protein after 20 mins by GC analysis; type: ADME, cell-based
PBMC [42] = assay: Cellular uptake in human PBMC residual solution after 3 hrs by GC analysis; type: ADME, cell-based
PBMC [43] = assay: Cellular uptake in human PBMC nucleus after 1 hr by GC analysis; type: ADME, cell-based
PBMC [44] = assay: Cellular uptake in human PBMC nucleus assessed per mg of protein after 2 hrs by GC analysis; type: ADME, cell-based
[45] = Immunomodulatory activity in human PMNC assessed as induction of FasL expression at 375 uM after 24 hrs by FITC-conjugated flow cytometry relative to control; type: functional
PBMC [46] = assay: Cellular uptake in human PBMC nucleus residual solution after 1 hr by GC analysis; type: ADME, cell-based
PBMC [47] = assay: Cellular uptake in human PBMC after 2 hrs by GC analysis; type: ADME, cell-based
PBMC [48] = assay: Cellular uptake in human PBMC pellet solution after 2 hrs by GC analysis; type: ADME, cell-based
PBMC [49] = assay: Cellular uptake in human PBMC residual solution after 30 mins by GC analysis; type: ADME, cell-based; details: 0.5 h
PBMC [50] = assay: Cellular uptake in human PBMC residual solution after 1 hr by GC analysis; type: ADME, cell-based
[51] = Immunomodulatory activity in human PMNC assessed as induction of CD69 expression at 100 uM after 24 hrs by FACS analysis; type: functional

Stability [2]: Unstable
SMILES: CCCCCCCCC(O)CCC(=O)O (centres undefined)
Activity (Homo sapiens [1]): Active

SMILES: CCCCCCCC[C@H](O)CCC(=O)O
Activity (Homo sapiens [1]): Active

Drug uptake (PBMC [4]): 9.95 ng
Drug uptake (PBMC [5]): 0.658 mg/mL
Drug uptake (PBMC [8]): 0.016 ng
Drug uptake (PBMC [9]): 0.017 µg
Drug uptake (PBMC [10]): 0.007 µg
Drug uptake (PBMC [11]): 0.618 mg/mL
Drug uptake (PBMC [12]): 0 ng
Drug uptake (PBMC [15]): 0.02 µg
Drug uptake (PBMC [19]): 0.015 µg
Drug uptake (PBMC [20]): 0.007 µg
Drug uptake (PBMC [21]): 9.95 ng
Drug uptake (PBMC [22]): 0.008 µg
Drug uptake (PBMC [23]): 0.02 µg
Drug uptake (PBMC [24]): 0.022 µg
Drug uptake (PBMC [25]): 0.011 ng
Activity [26]: 29%
Drug uptake (PBMC [27]): 0.791 mg/mL
Drug uptake (PBMC [28]): 0 µg
Drug uptake (PBMC [30]): 8.44 ng
Drug uptake (PBMC [31]): 0.001 ng
Drug uptake (PBMC [32]): 0.009 µg
Drug uptake (PBMC [33]): 0 µg
Drug uptake (PBMC [34]): 0.027 µg
Drug uptake (PBMC [36]): 0 µg
Drug uptake (PBMC [38]): 0.774 mg/mL
Drug uptake [40]: 18.62 ng
Drug uptake (PBMC [41]): 0.013 ng
Drug uptake (PBMC [42]): 0 µg
Drug uptake (PBMC [43]): 0.9 mg/mL
Drug uptake (PBMC [44]): 0 ng
Drug uptake (PBMC [46]): 8.4 ng
Drug uptake (PBMC [47]): 0.009 µg
Drug uptake (PBMC [48]): 0 µg
Drug uptake (PBMC [49]): 0.019 µg
Drug uptake (PBMC [50]): 0.01 µg
SMILES: CCCCCCCC[C@H]1CCC(=O)O1
Activity (NK [3]): Active
Activity [6]: Non-toxic
Activity [7]: 13.58%
fold change (FC) [13]: 1.5
Activity (Homo sapiens [14]): Dose-dependent effect
Activity [16]: 19.37%
Activity (NK [17]): Active
Activity (NK [18]): Active
Activity (NK [29]): Active
Activity (HepG2): Active
Activity [35]: 33.65%
Activity (NK [37]): Active
Activity (NK [39]): Active
fold change (FC) [45]: 2.5
Activity [51]: 10.51%

SMILES: CCCCCCCC[C@@H](O)CCC(=O)O
Activity (Homo sapiens [1]): Active
